Results: US7973036B2, “2-methyl-5-imino-benzo[D][1 ,3]oxazin[5-B]pyrazole compound, preparation and use thereof” (Qingdao Huanghai Pharmaceutical Co., Ltd, priority 2008, dated 2011)
“Also recorded” adds a separate entry of the source. Values belong to the molecule of their own block, whether it stands above or below them.

Columns and labels:
[1] = Anti-DPPH free radical test (spectrophotometry at 517 nm); format: biochemical; conditions: for DPPH free radical scavenged by one molecular of compound / DPPH free radical scavenging ability E, one value per sample (mean of the five concentrations) / DPPH free radical scavenging ability V / DPPH free radical scavenging ability, comparison between samples / DPPH free radical scavenging ability E: 30 min; for DPPH free radical scavenging ability with the reaction time / Hydrolysis in the reaction liquid with the reaction time: 30-150 min; for Hydrolysis in the reaction liquid with the reaction time: 95% ethanol, pH 7.5, room temperature
Text: Anti-DPPH Free Radical Test
2,2-diphenyl-1-picrylhydrazyl (DPPH) free radical spectrophotometry is a simple method for screening antioxidants, the principle of which is using the characteristic absorption peak of DPPH solution at 517 nm. When free radical scavengers existed, single electron pairing between free radical scavenger and DPPH allowed the absorption of DPPH disappeared, and its decoloring degree and accepted electron number present as quantitative relation, and the antioxidant activity of samples can be evaluated through the amount of cleared DPPH, so the spectrophotometry can be used for quantitative analysis.
DPPH was accurately weighed and placed in a volumetric flask, and diluted to 100 ml with 95% ethanol. The absorbance (A) of DPPH was measured at 517 nm.
DPPH standard curve was shown in FIG. 1, the linear equation of which was as follows: y=0.219x−0.0285; r=0.9994.
DPPH was accurately weighed and placed in a 100 ml volumetric flask, and diluted to 100 ml with 95% ethanol to produce the DPPH solution.
Preparation of Test Drug Solution: the Test Drug was Accurately Weighed and Placed in a 100 ml volumetric flask, dissolved with 20 ml of 95% ethanol, adjusted to pH 7.5 and diluted to 100 ml with 95% ethanol.
5.0 ml of DPPH solution and 2.0 ml test drug solution were taken and placed in a 10 ml volumetric flask, fully shaken at room temperature for a certain time followed by determination of absorption value (A) at 517 nm.
Formula for calculating DPPH free radical scavenging ability of test drug, E (mgDPPH/mg):
Formula for calculating DPPH free radical scavenging ability of test drug, V (mmolDPPH/mmol): […]

[2] = system: cerebral ischemia reperfusion model of middle cerebral artery occlusion (MCAO); assay: Cerebral ischemia reperfusion model of middle cerebral artery occlusion (MCAO), suture method; format: in vivo, SD rats; conditions: for Variation value of water content in brain (%) / brain tissue MDA content / brain tissue SOD activity / Scores of neurological defect symptoms / Cerebral infarction area (%) / Cerebral infarction area (%) (table title: brain injury): X ± SD; for Cerebral infarction area (%): Table 5; for Cerebral infarction area (%) (table title: brain injury): Table 6, brain injury
Experimental: Cerebral ischemia reperfusion model of middle cerebral artery occlusion (MCAO) was established in SD rats using the suture method of internal carotid artery. Test rats were administrated once 0.5 hours after ischemia reperfusion, then once every 2 hours, for totally three times. Neurological defect symptoms were observed 48 hours after cerebral ischemia.

[3] = test drug C 0.152 (Edaravone), 0.153 (Compound 1, 2), 0.159 (Compound 3) mg/100 ml
[4] = test drug C 0.304 (Edaravone), 0.305 (Compound 1, 2), 0.318 (Compound 3) mg/100 ml
[5] = test drug C 0.608 (Edaravone), 0.610 (Compound 1, 2), 0.635 (Compound 3) mg/100 ml
[6] = test drug C 1.215 (Edaravone), 1.220 (Compound 1, 2), 1.270 (Compound 3) mg/100 ml
[7] = test drug C 2.430 (Edaravone), 2.440 (Compound 1, 2), 2.540 (Compound 3) mg/100 ml
[8] = TR high dose group (6.0 mg/kg), P<0.001
[9] = TR 1.5 mg/kg, three administrations, n=7
[10] = TR 3.0 mg/kg, three administrations, n=8
[11] = TR 6.0 mg/kg, three administrations, n=8
[12] = Nimodipine 0.4 mg/kg, three administrations, n=10

Molecule: Cc1cc(=O)n(-c2ccccc2C#N)[nH]1 [Compound 3, 1-(2-cyanophenyl)-3-methylpyrazol-5-one]
DPPH free radical scavenged by one molecular of compound [1]: 1.942 molecular of DPPH free radical | DPPH free radical scavenging ability E, one value per sample (mean of the five concentrations) [1]: 3.510 mgDPPH/mg | DPPH free radical scavenging ability V [1]: 1.942 mmolDPPH/mmol | DPPH free radical scavenging ability, comparison between samples [1]: the largest; also recorded: slightly stronger than Edaravone | DPPH free radical scavenging ability E [1, 3]: 3.067 mgDPPH/mg | DPPH free radical scavenging ability E [1, 4]: 3.215 mgDPPH/mg | DPPH free radical scavenging ability E [1, 5]: 2.770 mgDPPH/mg | DPPH free radical scavenging ability E [1, 6]: 4.032 mgDPPH/mg | DPPH free radical scavenging ability E [1, 7]: 4.464 mgDPPH/mg

Molecule: CC1=NN(c2ccccc2)C(=O)C1 [Edaravone, edaravone, reference compound]
DPPH free radical scavenged by one molecular of compound [1]: 1.657 molecular of DPPH free radical | DPPH free radical scavenging ability E, one value per sample (mean of the five concentrations) [1]: 3.752 mgDPPH/mg | DPPH free radical scavenging ability V [1]: 1.657 mmolDPPH/mmol | DPPH free radical scavenging ability E [1, 3]: 3.222 mgDPPH/mg | DPPH free radical scavenging ability E [1, 4]: 3.195 mgDPPH/mg | DPPH free radical scavenging ability E [1, 5]: 3.322 mgDPPH/mg | DPPH free radical scavenging ability E [1, 6]: 4.785 mgDPPH/mg | DPPH free radical scavenging ability E [1, 7]: 4.237 mgDPPH/mg

Hydrolysis in the reaction liquid with the reaction time [1]: gradually hydrolyzed into Compound 3
Molecule: Cc1cc2oc(=N)c3ccccc3n2n1 [TR, 2-methyl-5-imino-benzo[d][1,3]oxazin[5-b]pyrazole]
DPPH free radical scavenging ability with the reaction time [1]: gradually increased | DPPH free radical scavenging ability E, one value per sample (mean of the five concentrations) [1]: 0.419 mgDPPH/mg | DPPH free radical scavenging ability V [1]: 0.212 mmolDPPH/mmol | DPPH free radical scavenging ability E [1, 3]: 0.409 mgDPPH/mg | DPPH free radical scavenging ability E [1, 4]: 0.368 mgDPPH/mg | DPPH free radical scavenging ability E [1, 5]: 0.310 mgDPPH/mg | DPPH free radical scavenging ability E [1, 6]: 0.561 mgDPPH/mg | DPPH free radical scavenging ability E [1, 7]: 0.445 mgDPPH/mg | Variation value of water content in brain (%) ([2]; TR 1.5 mg/kg, n=7): 2.1 ± 1.08 % | brain tissue MDA content ([2]; TR 1.5 mg/kg, n=7): 6.6 ± 1.30 nmol/mgprot | brain tissue SOD activity ([2]; TR 1.5 mg/kg, n=7): 107.1 ± 15.5 U/mgprot | Variation value of water content in brain (%) ([2]; TR 3.0 mg/kg, n=8): 2.0 ± 1.01 % | brain tissue MDA content ([2]; TR 3.0 mg/kg, n=8): 6.5 ± 0.81 nmol/mgprot | brain tissue SOD activity ([2]; TR 3.0 mg/kg, n=8): 121.6 ± 16.8 U/mgprot | Variation value of water content in brain (%) ([2]; TR 6.0 mg/kg, n=9): 1.2 ± 0.55 % | brain tissue MDA content ([2]; TR 6.0 mg/kg, n=9): 5.0 ± 1.10 nmol/mgprot | brain tissue SOD activity ([2]; TR 6.0 mg/kg, n=9): 132.7 ± 21.0 U/mgprot | MDA content compared with the model group [2, 8]: significantly decreased | brain injury compared with the model group [2, 8]: significantly reduced | cerebral infarction area compared with the model group [2, 8]: significantly reduced | water content in brain compared with the model group [2, 8]: significantly reduced | SOD activity compared with the model group ([2]; TR high dose group (6.0 mg/kg), P=0.007): significantly increased | cerebral infarction area compared with the model group ([2]; TR low dose group (1.5 mg/kg), P=0.044): significantly reduced | water content in brain compared with the model group ([2]; TR low dose group (1.5 mg/kg), P=0.086): No obvious difference | MDA content compared with the model group ([2]; TR low dose group (1.5 mg/kg), P=0.211): No obvious difference | SOD activity compared with the model group ([2]; TR low dose group (1.5 mg/kg), P=0.826): No obvious difference | cerebral infarction area compared with the model group ([2]; TR medium dose group (3.0 mg/kg), P<0.001): significantly reduced | brain injury compared with the model group ([2]; TR medium dose group (3.0 mg/kg), P=0.001): significantly reduced | water content in brain compared with the model group ([2]; TR medium dose group (3.0 mg/kg), P=0.039): significantly reduced | MDA content compared with the model group ([2]; TR medium dose group (3.0 mg/kg), P=0.141): No obvious difference | SOD activity compared with the model group ([2]; TR medium dose group (3.0 mg/kg), P=0.157): No obvious difference | Scores of neurological defect symptoms ([2]; Table 4 series, TR 1.5 mg/kg, three administrations, 48 hours after cerebral ischemia, n=7): 1.6 ± 0.75 | Scores of neurological defect symptoms ([2]; Table 4 series, TR 3.0 mg/kg, three administrations, 48 hours after cerebral ischemia, n=8): 1.1 ± 0.44 | Scores of neurological defect symptoms ([2]; Table 4 series, TR 6.0 mg/kg, three administrations, 48 hours after cerebral ischemia, n=8): 1.0 ± 0.46 | neurological defect symptoms compared with the model group ([2]; Table 4 series, TR high dose group (6.0 mg/kg), P<0.001): significantly reduced | neurological defect symptoms compared with the model group ([2]; Table 4 series, TR low dose group (1.5 mg/kg), P=0.001): significantly reduced | neurological defect symptoms compared with the model group ([2]; Table 4 series, TR medium dose group (3.0 mg/kg), P<0.001): significantly reduced | Cerebral infarction area (%) [2, 9]: 26.5 ± 13.24 % | Cerebral infarction area (%) [2, 10]: 17.4 ± 10.05 % | Cerebral infarction area (%) [2, 11]: 6.7 ± 6.30^#& % | Cerebral infarction area (%) (table title: brain injury) [2, 9]: 33.6 ± 16.08 % | Cerebral infarction area (%) (table title: brain injury) [2, 10]: 22.7 ± 12.10 % | Cerebral infarction area (%) (table title: brain injury) [2, 11]: 8.1 ± 5.68^#& % | Scores of neurological defect symptoms ([2]; Table 7 series, TR 1.5 mg/kg, n=7): 1.9 ± 0.84 | Scores of neurological defect symptoms ([2]; Table 7 series, TR 3.0 mg/kg, n=8): 1.8 ± 0.70 | Scores of neurological defect symptoms ([2]; Table 7 series, TR 6.0 mg/kg, n=9): 1.0 ± 0.58 | neurological defect symptoms compared with the model group ([2]; Table 7 series, TR high dose group (6.0 mg/kg), P<0.001): significantly relieved | neurological defect symptoms compared with the model group ([2]; Table 7 series, TR low dose group (1.5 mg/kg), P=0.001): significantly relieved | neurological defect symptoms compared with the model group ([2]; Table 7 series, TR medium dose group (3.0 mg/kg), P<0.001): significantly relieved | onset dose ([2]; improvement of neurological defect symptoms, infarction area, brain injury, brain edema, lipid peroxidation in cerebral ischemia-reperfusion animals): 3 mg/kg

Molecule: COCCOC(=O)C1=C(C)NC(C)=C(C(=O)OC(C)C)C1c1cccc([N+](=O)[O-])c1 (centres unmarked) [Nimodipine, nimodipine, reference compound]
Variation value of water content in brain (%) ([2]; Nimodipine 0.4 mg/kg, n=7): 1.6 ± 0.59 % | brain tissue MDA content ([2]; Nimodipine 0.4 mg/kg, n=7): 7.6 ± 1.28 nmol/mgprot | brain tissue SOD activity ([2]; Nimodipine 0.4 mg/kg, n=7): 114.8 ± 16.4 U/mgprot | Scores of neurological defect symptoms ([2]; Table 4 series, Nimodipine 0.4 mg/kg, three administrations, 48 hours after cerebral ischemia, n=10): 1.2 ± 0.41 | Cerebral infarction area (%) [2, 12]: 6.7 ± 6.30^#& % | Cerebral infarction area (%) (table title: brain injury) [2, 12]: 12.8 ± 12.09^#& % | Scores of neurological defect symptoms ([2]; Table 7 series, Nimodipine 0.4 mg/kg, n=7): 1.3 ± 0.86

Hydrolysis in the reaction liquid with the reaction time [1]: gradually hydrolyzed into Compound 3
Molecule: 2-methyl-benzo[d][1,3]oxazin[5-b]pyrazole-5-one [Compound 1]
DPPH free radical scavenging ability with the reaction time [1]: gradually increased | DPPH free radical scavenging ability E, one value per sample (mean of the five concentrations) [1]: 1.687 mgDPPH/mg | DPPH free radical scavenging ability V [1]: 0.856 mmolDPPH/mmol | DPPH free radical scavenging ability, comparison between samples [1]: one-eighth of Compound 3 | DPPH free radical scavenging ability E [1, 3]: 1.650 mgDPPH/mg | DPPH free radical scavenging ability E [1, 4]: 1.481 mgDPPH/mg | DPPH free radical scavenging ability E [1, 5]: 1.252 mgDPPH/mg | DPPH free radical scavenging ability E [1, 6]: 2.262 mgDPPH/mg | DPPH free radical scavenging ability E [1, 7]: 1.792 mgDPPH/mg | DPPH free radical scavenging ability, comparison with Compound 3 ([1]; at 150 min): equivalent with Compound 3
